The values below come from article PMC5218480 (PLoS ONE, 2017).

The assay has as its system MV-4-11 cells. Put plainly: Gene expression microarray analysis (Affymetrix PrimeView) and GSEA. Also on record: RFU PODN (11730768_x_at) / Fold change /veh PODN (11730768_x_at) / RFU LINC00158 (11744669_a_at) / Fold change /veh LINC00158 (11744669_a_at) / RFU DUSP10 (11751237_a_at) / Fold change /veh DUSP10 (11751237_a_at) / RFU ID3 (11757404_x_at) / Fold change /veh ID3 (11757404_x_at) / RFU PLEKHG5 (11737974_s_at) / Fold change /veh PLEKHG5 (11737974_s_at) / RFU LRRC4B (11730491_at) / Fold change /veh LRRC4B (11730491_at) / RFU GIMAP4 (11747438_a_at) / Fold change /veh GIMAP4 (11747438_a_at) / RFU KRT8 (11758183_x_at) / Fold change /veh KRT8 (11758183_x_at) / RFU CNN1 (11734310_a_at) / Fold change /veh CNN1 (11734310_a_at) / RFU VPS37D (11726825_at) / Fold change /veh VPS37D (11726825_at) / RFU C10orf10 (11716522_x_at) / Fold change /veh C10orf10 (11716522_x_at) / RFU KIR2DL2 /// KIR2DL4 /// KIR2DL5A /// KIR2DL5B /// KIR2DS1 /// KIR2DS2 /// KIR2DS3 /// KIR2DS4 /// KIR3DL3 /// KIR3DL3 /// KIR3DS1 (11738374_at) / Fold change /veh KIR2DL2 /// KIR2DL4 /// KIR2DL5A /// KIR2DL5B /// KIR2DS1 /// KIR2DS2 /// KIR2DS3 /// KIR2DS4 /// KIR3DL3 /// KIR3DL3 /// KIR3DS1 (11738374_at) / RFU C1QL1 (11718748_at) / Fold change /veh C1QL1 (11718748_at) / RFU TMPRSS4 (11747572_a_at) / Fold change /veh TMPRSS4 (11747572_a_at) / RFU HAMP (11756126_x_at) / Fold change /veh HAMP (11756126_x_at) / RFU RNFT2 (11725882_a_at) / Fold change /veh RNFT2 (11725882_a_at) / RFU NR4A2 (11747474_a_at) / Fold change /veh NR4A2 (11747474_a_at) / RFU ABCC12 (11746883_a_at) / Fold change /veh ABCC12 (11746883_a_at) / RFU TMEM136 (11760407_x_at) / Fold change /veh TMEM136 (11760407_x_at) / RFU CLDN22 /// WWC2 (11732394_at) / Fold change /veh CLDN22 /// WWC2 (11732394_at) / RFU HLA-DPB1 (11760878_x_at) / Fold change /veh HLA-DPB1 (11760878_x_at) / RFU SPINT1 (11716480_a_at) / Fold change /veh SPINT1 (11716480_a_at) / RFU GAP43 (11754022_s_at) / Fold change /veh GAP43 (11754022_s_at) / RFU A4GNT (11735810_at) / Fold change /veh A4GNT (11735810_at) / RFU PRB3 (11715151_x_at) / Fold change /veh PRB3 (11715151_x_at) / RFU TUBB4B (11761932_at) / Fold change /veh TUBB4B (11761932_at) / RFU CAPN14 (11732068_a_at) / Fold change /veh CAPN14 (11732068_a_at) / RFU TMCC2 (11721928_a_at) / Fold change /veh TMCC2 (11721928_a_at) / RFU IRGQ (11745062_a_at) / Fold change /veh IRGQ (11745062_a_at) / RFU FAM174B (11720279_a_at) / Fold change /veh FAM174B (11720279_a_at) / RFU TMPRSS4 (11748680_a_at) / Fold change /veh TMPRSS4 (11748680_a_at) / RFU FAM212B (11763350_a_at) / Fold change /veh FAM212B (11763350_a_at) / RFU PLEKHG5 (11743358_a_at) / Fold change /veh PLEKHG5 (11743358_a_at) / RFU ZSCAN30 (11745921_a_at) / Fold change /veh ZSCAN30 (11745921_a_at) / RFU CMKLR1 (11741424_a_at) / Fold change /veh CMKLR1 (11741424_a_at) / RFU LOC101060620 /// MAPK8IP1 (11723275_at) / Fold change /veh LOC101060620 /// MAPK8IP1 (11723275_at) / RFU SPTSSB (11747773_x_at) / Fold change /veh SPTSSB (11747773_x_at) / RFU PRSS12 (11739890_at) / Fold change /veh PRSS12 (11739890_at) / RFU BIN1 (11741810_x_at) / Fold change /veh BIN1 (11741810_x_at) / RFU WNT11 (11732464_a_at) / Fold change /veh WNT11 (11732464_a_at) / RFU C10orf10 (11716521_a_at) / Fold change /veh C10orf10 (11716521_a_at) / RFU C5orf56 (11738089_at) / Fold change /veh C5orf56 (11738089_at) / RFU CYB561 (11721691_x_at) / Fold change /veh CYB561 (11721691_x_at) / RFU ANKRD19P (11752326_a_at) / Fold change /veh ANKRD19P (11752326_a_at) / RFU OR2T12 /// OR2T33 /// OR2T8 (11738714_s_at) / Fold change /veh OR2T12 /// OR2T33 /// OR2T8 (11738714_s_at) / RFU VCAN (11748164_a_at) / Fold change /veh VCAN (11748164_a_at) / RFU JSRP1 (11732532_at) / Fold change /veh JSRP1 (11732532_at) / RFU KRTAP10-11 (11738290_x_at) / Fold change /veh KRTAP10-11 (11738290_x_at) / RFU MYO3A (11730013_a_at) / Fold change /veh MYO3A (11730013_a_at) / RFU EBF3 (11725865_a_at) / Fold change /veh EBF3 (11725865_a_at) / RFU CAMK2N1 (11719241_x_at) / Fold change /veh CAMK2N1 (11719241_x_at) / RFU C5orf56 (11738088_a_at) / Fold change /veh C5orf56 (11738088_a_at) / RFU OLFML3 (11715873_a_at) / Fold change /veh OLFML3 (11715873_a_at) / RFU LOC100653217 /// NTM (11731650_a_at) / Fold change /veh LOC100653217 /// NTM (11731650_a_at) / RFU MAPK11 (11762145_a_at) / Fold change /veh MAPK11 (11762145_a_at) / RFU FIZ1 (11724087_x_at) / Fold change /veh FIZ1 (11724087_x_at) / RFU OASL (11726364_x_at) / Fold change /veh OASL (11726364_x_at) / RFU SOX15 (11748057_x_at) / Fold change /veh SOX15 (11748057_x_at) / RFU CD79A (11719716_a_at) / Fold change /veh CD79A (11719716_a_at) / RFU HIST1H1D (11736915_at) / Fold change /veh HIST1H1D (11736915_at) / RFU CASKIN2 (11723855_a_at) / Fold change /veh CASKIN2 (11723855_a_at) / RFU LOC730098 (11760151_x_at) / Fold change /veh LOC730098 (11760151_x_at) / RFU OR4N2 (11742367_at) / Fold change /veh OR4N2 (11742367_at) / RFU PRRT2 (11749266_a_at) / Fold change /veh PRRT2 (11749266_a_at) / RFU SNX32 (11753110_a_at) / Fold change /veh SNX32 (11753110_a_at) / RFU CDHR5 (11726645_a_at) / Fold change /veh CDHR5 (11726645_a_at) / RFU RCAN1 (11760418_a_at) / Fold change /veh RCAN1 (11760418_a_at) / RFU FAM167A (11723789_a_at) / Fold change /veh FAM167A (11723789_a_at) / RFU FAM26E (11764081_at) / Fold change /veh FAM26E (11764081_at) / RFU ISYNA1 (11749810_s_at) / Fold change /veh ISYNA1 (11749810_s_at) / RFU ACY1 (11761880_at) / Fold change /veh ACY1 (11761880_at) / RFU 11764098_at / Fold change /veh 11764098_at / RFU SAMD14 (11745864_x_at) / Fold change /veh SAMD14 (11745864_x_at) / RFU NPB (11741838_a_at) / Fold change /veh NPB (11741838_a_at) / RFU TMPRSS6 (11731388_a_at) / Fold change /veh TMPRSS6 (11731388_a_at) / RFU KRTAP10-2 (11738614_at) / Fold change /veh KRTAP10-2 (11738614_at) / RFU ARHGAP8 /// PRR5-ARHGAP8 (11727945_x_at) / Fold change /veh ARHGAP8 /// PRR5-ARHGAP8 (11727945_x_at) / RFU KRTAP5-7 /// NADSYN1 (11734609_at) / Fold change /veh KRTAP5-7 /// NADSYN1 (11734609_at) / RFU RASL12 (11751679_a_at) / Fold change /veh RASL12 (11751679_a_at) / RFU CDKN2B (11736163_a_at) / Fold change /veh CDKN2B (11736163_a_at) / RFU PRF1 (11729649_at) / Fold change /veh PRF1 (11729649_at) / RFU, ZNF638 /// ZNF638-IT1 / Fold change vs veh, ZNF638 /// ZNF638-IT1 / RFU, PANK3 / Fold change vs veh, PANK3 / RFU, SH3YL1 / Fold change vs veh, SH3YL1 / RFU, ZEB2 / Fold change vs veh, ZEB2 / RFU, NRIP1 / Fold change vs veh, NRIP1 / RFU, PTTG1IP / Fold change vs veh, PTTG1IP / RFU, CAPN2 / Fold change vs veh, CAPN2 / RFU, MED14 / Fold change vs veh, MED14 / RFU, SNORA58 / Fold change vs veh, SNORA58 / RFU, C1orf63 / Fold change vs veh, C1orf63 / RFU, LRRFIP1 / Fold change vs veh, LRRFIP1 / RFU, NDUFAF7 / Fold change vs veh, NDUFAF7 / RFU, SLC12A2 / Fold change vs veh, SLC12A2 / RFU, IBTK / Fold change vs veh, IBTK / RFU, ESF1 / Fold change vs veh, ESF1 / Fold change vs veh, TMEM50B / RFU, TAOK1 / Fold change vs veh, TAOK1 / RFU, ACBD3 / Fold change vs veh, ACBD3 / RFU, TMA16 / Fold change vs veh, TMA16 / RFU, RWDD3 / Fold change vs veh, RWDD3 / RFU, BCAT1 / Fold change vs veh, BCAT1 / RFU, EDEM3 / Fold change vs veh, EDEM3 / RFU, TMEM33 / Fold change vs veh, TMEM33 / RFU, WDR75 / Fold change vs veh, WDR75 / RFU, AHCTF1 / Fold change vs veh, AHCTF1 / RFU, TFRC / Fold change vs veh, TFRC / RFU, ZDHHC17 / Fold change vs veh, ZDHHC17 / RFU, NOM1 / Fold change vs veh, NOM1 / RFU, ARL8B / Fold change vs veh, ARL8B / RFU, ZBTB11 / Fold change vs veh, ZBTB11 / RFU, TAMM41 / Fold change vs veh, TAMM41 / RFU, KIAA1704 /// LOC100996395 / Fold change vs veh, KIAA1704 /// LOC100996395 / RFU, ING1 / Fold change vs veh, ING1 / RFU, TRMT61B / Fold change vs veh, TRMT61B / RFU, FUBP3 / Fold change vs veh, FUBP3 / RFU, TP53 / Fold change vs veh, TP53 / RFU, TNKS2 / Fold change vs veh, TNKS2 / RFU, ZFP14 / Fold change vs veh, ZFP14 / RFU, ACTR2 / Fold change vs veh, ACTR2 / RFU, PPP3R1 / Fold change vs veh, PPP3R1 / RFU, PIK3R1 / Fold change vs veh, PIK3R1 / RFU, HNRNPA1 / Fold change vs veh, HNRNPA1 / RFU, RNF170 / Fold change vs veh, RNF170 / RFU, ZNF28 / Fold change vs veh, ZNF28 / RFU, RNGTT / Fold change vs veh, RNGTT / RFU, OGT / Fold change vs veh, OGT / RFU, BRD1 / Fold change vs veh, BRD1 / RFU, MARS / Fold change vs veh, MARS / RFU, ZNF655 / Fold change vs veh, ZNF655 / RFU, FAHD1 / Fold change vs veh, FAHD1 / RFU, BDP1 / Fold change vs veh, BDP1 / RFU, LRRCC1 / Fold change vs veh, LRRCC1 / RFU, ARID1A / Fold change vs veh, ARID1A / RFU, ZNF146 / Fold change vs veh, ZNF146 / RFU, ZNF330 / Fold change vs veh, ZNF330 / RFU, GPN3 / Fold change vs veh, GPN3 / RFU, C9orf123 / Fold change vs veh, C9orf123 / RFU, N4BP2L2 / Fold change vs veh, N4BP2L2 / RFU, ARFIP1 / Fold change vs veh, ARFIP1 / RFU, FAM179B / Fold change vs veh, FAM179B / RFU, BCL10 / Fold change vs veh, BCL10 / RFU, UHRF1BP1L / Fold change vs veh, UHRF1BP1L / RFU, BET1 / Fold change vs veh, BET1 / RFU, CNOT2 / Fold change vs veh, CNOT2 / RFU, ZNF268 / Fold change vs veh, ZNF268 / Fold change vs veh, ZNF507 / RFU, DGCR2 / Fold change vs veh, DGCR2 / RFU, WDSUB1 / Fold change vs veh, WDSUB1 / Fold change vs veh, HSP90B1 /// MIR3652 / RFU, ADSS / Fold change vs veh, ADSS / RFU, GK / Fold change vs veh, GK / RFU, ZNF148 / Fold change vs veh, ZNF148 / RFU, TAF9 / Fold change vs veh, TAF9 / RFU, SLC1A5 / Fold change vs veh, SLC1A5 / RFU, SLMO2 / Fold change vs veh, SLMO2 / RFU, ABCC4 / Fold change vs veh, ABCC4 / RFU, LOC101060439 /// RAP1B / Fold change vs veh, LOC101060439 /// RAP1B / RFU, RFX7 / Fold change vs veh, RFX7 / RFU, GTPBP10 / Fold change vs veh, GTPBP10 / RFU, CNEP1R1 / Fold change vs veh, CNEP1R1 / RFU, BIVM-ERCC5 /// ERCC5 / Fold change vs veh, BIVM-ERCC5 /// ERCC5 / RFU, ILF3 / Fold change vs veh, ILF3 / RFU 11762660_at / Fold change /veh 11762660_at / RFU VCAN (11757783_s_at) / Fold change /veh VCAN (11757783_s_at) / RFU DDX43 (11728927_at) / Fold change /veh DDX43 (11728927_at) / RFU KRT8 (11758188_x_at) / Fold change /veh KRT8 (11758188_x_at) / RFU NKD1 (11759106_at) / Fold change /veh NKD1 (11759106_at) / RFU SRD5A1 (11742802_a_at) / Fold change /veh SRD5A1 (11742802_a_at) / RFU TPSAB1 /// TPSB2 (11721975_s_at) / Fold change /veh TPSAB1 /// TPSB2 (11721975_s_at) / RFU GSTM3 (11746129_a_at) / Fold change /veh GSTM3 (11746129_a_at) / RFU IL23R (11737362_x_at) / Fold change /veh IL23R (11737362_x_at) / RFU TMEM51 (11727254_a_at) / Fold change /veh TMEM51 (11727254_a_at) / RFU PIWIL2 (11732686_x_at) / Fold change /veh PIWIL2 (11732686_x_at) / RFU ORM1 (11744905_x_at) / Fold change /veh ORM1 (11744905_x_at) / RFU CCDC152 (11743942_at) / Fold change /veh CCDC152 (11743942_at) / RFU ECM1 (11717891_a_at) / Fold change /veh ECM1 (11717891_a_at) / RFU IL23R (11748794_a_at) / Fold change /veh IL23R (11748794_a_at) / RFU TNFAIP8L3 (11732012_x_at) / Fold change /veh TNFAIP8L3 (11732012_x_at) / RFU MBOAT4 (11741988_at) / Fold change /veh MBOAT4 (11741988_at) / RFU 11764193_at / Fold change /veh 11764193_at / RFU TMEM53 (11763286_at) / Fold change /veh TMEM53 (11763286_at) / RFU MAGEB2 (11727129_at) / Fold change /veh MAGEB2 (11727129_at) / RFU TMEM200A (11744735_a_at) / Fold change /veh TMEM200A (11744735_a_at) / RFU CCDC152 (11751479_a_at) / Fold change /veh CCDC152 (11751479_a_at) / RFU FAM211A (11726209_a_at) / Fold change /veh FAM211A (11726209_a_at) / RFU RGS16 (11746705_a_at) / Fold change /veh RGS16 (11746705_a_at) / RFU VCAN (11755009_s_at) / Fold change /veh VCAN (11755009_s_at) / RFU RHOB (11743442_s_at) / Fold change /veh RHOB (11743442_s_at) / RFU RGS16 (11720943_a_at) / Fold change /veh RGS16 (11720943_a_at) / RFU RGS16 (11720944_at) / Fold change /veh RGS16 (11720944_at) / RFU, VPS4B / Fold change vs veh, VPS4B / RFU, CREB1 / Fold change vs veh, CREB1 / RFU, DNAJC13 / Fold change vs veh, DNAJC13 / RFU, GNAQ / Fold change vs veh, GNAQ / RFU, CDK5R1 / Fold change vs veh, CDK5R1 / RFU, ZRANB3 / Fold change vs veh, ZRANB3 / RFU, CUL4A / Fold change vs veh, CUL4A / RFU, CCNY / Fold change vs veh, CCNY / RFU, UFL1 / Fold change vs veh, UFL1 / RFU, COG3 / Fold change vs veh, COG3 / RFU, DIAPH2 / Fold change vs veh, DIAPH2 / RFU, SKA2 / Fold change vs veh, SKA2 / RFU, AFF3 / Fold change vs veh, AFF3 / RFU, LMF1 / Fold change vs veh, LMF1 / RFU, IPO11 / Fold change vs veh, IPO11 / RFU, DFFB / Fold change vs veh, DFFB / RFU, FOXP1 / Fold change vs veh, FOXP1 / RFU, CARD8 / Fold change vs veh, CARD8 / RFU, STRN3 / Fold change vs veh, STRN3 / RFU, ADK / Fold change vs veh, ADK / RFU, RASSF2 / Fold change vs veh, RASSF2 / RFU, WIPF1 / Fold change vs veh, WIPF1 / RFU, LARP1B / Fold change vs veh, LARP1B / RFU, RASA1 / Fold change vs veh, RASA1 / RFU, RB1 / Fold change vs veh, RB1 / RFU, PPFIA1 / Fold change vs veh, PPFIA1 / RFU, MAT2A / Fold change vs veh, MAT2A / RFU, CCT5 / Fold change vs veh, CCT5 / RFU, WDR92 / Fold change vs veh, WDR92 / RFU, CUX1 / Fold change vs veh, CUX1 / RFU, TTC7A / Fold change vs veh, TTC7A / RFU, TMEM135 / Fold change vs veh, TMEM135 / RFU, DEPTOR / Fold change vs veh, DEPTOR / RFU, CPM / Fold change vs veh, CPM / RFU, DNAJB6 / Fold change vs veh, DNAJB6 / RFU, CACNA2D3 / Fold change vs veh, CACNA2D3 / RFU, DTX4 / Fold change vs veh, DTX4 / RFU, TFCP2 / Fold change vs veh, TFCP2 / RFU, GMCL1 /// GMCL1P1 / Fold change vs veh, GMCL1 /// GMCL1P1 / RFU, AEBP2 / Fold change vs veh, AEBP2 / RFU, SNHG1 /// SNORD22 /// SNORD25 /// SNORD26 /// SNORD27 /// SNORD28 /// SNORD29 /// SNORD31 / Fold change vs veh, SNHG1 /// SNORD22 /// SNORD25 /// SNORD26 /// SNORD27 /// SNORD28 /// SNORD29 /// SNORD31 / Fold change (Aza/veh), C12orf56 (ProbeSet 11735607_a_at) / Fold change (ACY-1035/veh), C12orf56 (ProbeSet 11735607_a_at) / Fold change (Aza/veh), FGFR1OP (ProbeSet 11751329_s_at) / Fold change (ACY-1035/veh), FGFR1OP (ProbeSet 11751329_s_at) / Fold change (Aza/veh), VPS36 (ProbeSet 11739960_a_at) / Fold change (ACY-1035/veh), VPS36 (ProbeSet 11739960_a_at) / RFU SYPL1 (11715823_x_at) / Fold change /veh SYPL1 (11715823_x_at) / RFU IGFBP7 (11715501_s_at) / Fold change /veh IGFBP7 (11715501_s_at) / RFU REEP3 (11722064_at) / Fold change /veh REEP3 (11722064_at) / RFU IGLL1 (11728026_x_at) / Fold change /veh IGLL1 (11728026_x_at): dose or concentration left out as unconfirmed. In kind it is cell-based, human. To be noted: MV-4-11 cells, 48 hours.

With `Nc1ccc(-c2cccs2)cc1NC(=O)c1ccc2c(c1)cc(C1CC1)n2CCN1CCOCC1` [ACY-1035], the “Fold change /veh SAMD14 (11745864_x_at)” value was determined as 1.01.
